From patent US8846331B2, “Asynchronous magnetic bead rotation sensing systems and methods” (The Regents of the University of Michigan, priority 2010, dated 2014)
≈ marks a conversion by molar mass, not a printed value.

Tests used:
Format in all cases: cell-based, Escherichia coli
[1] = tested on: uropathogenic E. coli; test: AMBR with self-assembled magnetic particle clusters in hanging droplet, MIC measurement; conditions: from FIGS. 47a and 47b, rotational period of clusters
Excerpt: FIGS. 46a-c illustrates one example AMBR using a cluster formed in a well having a curved interface (in this example, a hanging droplet). […] This lensing effect may be used to amplify the rotational signal by magnifying the image through the droplet. […] An LED or laser light may be focused by the droplet curvature, magnifying the ‘image’ of the particle cluster a 100-fold. After the magnification, the rotational period can be observed and measured using a photodetector, thus observing a periodic signal corresponding to the rotational period of the cluster. FIG. 46b illustrates the change in cluster shape/size and rotation. The rotational period of the cluster changes accordingly: as the cluster itself expands (e.g., changing shape to have a larger diameter); as bacteria or other analytes attach to the cluster and/or expand/swell; or as the viscosity of the surrounding fluid changes. Viscosity may change if unbound cells divide and increase in number within the well. The rotational period of the cluster can be measured using the Fast Fourier Transform (FFT). The lower graphs in FIG. 46b show a shift in the peak observing the peak location. […]
The self-assembled magnetic particles shown in FIG. 47a-g enabled rapid MIC measurements, and the determined values agreed with values obtained with the traditional microdilution method. […]

[2] = tested on: uropathogenic E. coli isolate; test: MIC determination with the Vitek 2 system
[3] = tested on: uropathogenic E. coli; test: AMBR droplet microfluidic platform, small cell-population growth response (AST); conditions: for change in rotational period (bacterial growth): monitored minimum one hour
Excerpt: Asynchronous magnetic bead rotation (AMBR) may be performed on hanging droplets and on oil/water emulsions (e.g., droplets of water including the magnetic beads and analyte suspended in oil). For example an AMBR biosensor may use a droplet microfluidic platform that enables single cell and small cell population growth measurements for applications aimed at rapid antimicrobial susceptibility testing (“AST”). […] Growth was observed below the MIC, and no growth was observed above the MIC. A 52% change in the sensor signal (i.e. rotational period) was observed within 15 minutes, thus allowing AST measurements to be performed within minutes.
The microfluidic platform typically forms reproducibly or uniform-sized droplets of aqueous solution (e.g., media) including magnetic particles. […] In this example, the continuous phase consisted of mineral oil with 1% SPAN 80 (v/v). For bead (magnetic particle) characterization experiments, the aqueous phase consisted of PBS solution: PBS with 1% Pluronic F-68 and 0.1% BSA. For biological experiments, the aqueous phase consisted of MH broth solution: MH with 1% Pluronic F-68 and 0.1% BSA, which will be referred to as MH-PB.
In one example, using the microfluidic device described above and in FIGS. 23a and 23b, experiments were conducted on an Olympus IX71 inverted microscope. The microfluidic device was placed inside custom-built electromagnet coils that were integrated on the microscope stage (see, e.g., FIG. 23c). In this example, the rotating magnetic field was generated with a custom LabView program and data acquisition board (NI PCI-6221). The magnetic field driving frequency range was 0.1 Hz to 1 kHz, and the magnetic field strength was 0.9 mT, as measured with a 3-axis magnetic field probe (Senis Gmbh, C-H3A-2m).
Magnetic bead characterization experiments were conducted at 21° C. Single cell experiments were conducted at 21° C., with a 100× oil immersion objective. The magnetic field driving frequency was set at 500 Hz for control and growth experiments. One-minute videos at 15 frames per second (fps) were taken in 5-minute intervals with a digital camera. Small cell-population experiments were conducted at 35° C., with a 40× objective. The microfluidic device was placed on an ITO slide that was heated and maintained at a set temperature, 35+0.2° C. This temperature was monitored by a thermocouple that was coupled to the surface of the slide with a thermally conducting silver paste, Arctic Silver 5 (ARCTIC SILVER). The magnetic field driving frequency for small cell-population control and growth experiments was set at 50 Hz, and continuous videos were taken for a minimum of 5 hours at 2 fps. For small cell-population control and antibiotic response experiments, 1-minute videos were taken at 20 fps in either 5-minute or 20-minute intervals.
As mentioned, movies were captured with a digital camera (Basler, piA640-210 gm). The videos were analyzed using ImageJ (for example, see FIG. 23d). The rotational frequency of the bead complex was determined by monitoring the fluctuations in intensity profile at the target area of interest using ImageJ s ‘plot z-axis profile’ functionality. This intensity plot was analyzed by applying a Fast Fourier Transform (FFT) to the raw ImageJ data in MATLAB. The experimental error in determining the rotational period was designated as the FFT peak's full width at half max (FWHM) of the amplitude signal. […]

[4] = tested on: E. coli; test: AMBR multiwell card reader, rotational period growth curves (FIG. 9); conditions: FIG. 9, driving frequency 100 Hz
Experimental: FIG. 9 illustrates the rotational period (in seconds) of rotating magnetic beads with attached E. coli versus time (in minutes) for various concentrations of antibiotic (Gentamicin).
A clinical sample (e.g. blood, urine, etc) may be mixed with a Muller-Hinton (MH) or phosphate buffered saline solution that contains magnetic beads that are coated with antibodies specific to the pathogen of interest. The bacteria and beads are incubated together to allow for ample time to bind and if necessary, population growth of the bacteria. […] This solution (now containing only […]) is then placed into the disposable (preferably multiwell) plate, where the beads are asynchronously rotated in the card reader for detection/identification and antibiotic susceptibility testing, where the minimum inhibitory concentration will be determined. […] Finally, the magnetic particles are rotated in the asynchronous regime and monitored optically to determine cell growth (elongation and/or division). […]
The asynchronous rotational period of the rotating cluster of magnetic particles may be measured using the light modulation that is produced when each laser beam (or other light) passes through the small magnetic bead cluster. […] From this, the rotation rate can be measured by simply tracking the peak-to-peak distance (period) of the modulated intensity. […]

[5] = tested on: E. coli; test: AMBR 16-well prototype, growth of E. coli on clusters of magnetic particles (FIG. 3d); conditions: 0, 2, 4 and 8 μg/mL antibiotic
Excerpt: FIGS. 3a-f illustrates results from one variation of a multiwell prototype device using a 16-well disposable card. […] FIG. 3b illustrates exemplary results showing raw periodic laser intensity data corresponding to the rotation of the sample for one well; FIG. 3c is an image of a 16 sensor array AMBR system prototype that incorporates low-power lasers and phototransistors to measure rotational data (with black tray that supports the disposable card). FIG. 3d illustrates a graph of antibiotic susceptibility results for averaged and normalized data with E. coli bacteria.
For example, when cell division occurs, a significant portion of the bacteria remain on the surface of the particles. Thus, a more reliable growth response may be detected (as cells are not all shed into the medium). […] Clusters may be readily detected and their rotation more easily optically resolved. […] This allows for response to antibiotics to be measured in a reproducible manner, which makes the technique more clinically relevant. FIGS. 3a-3f illustrate a prototype device that has been used as a proof-of-principle for the rotation of clusters and use of multiwell sample plates. The example shown in FIG. 3a is a 16-well disposable plate. Each well in the plate (which may also be referred to as a “card”) has been treated to contain a single cluster of magnetic particles that rotate as a group. […]

Compound: gentamicin
- MIC measured with AMBR clusters [1]: 2 µg/mL
- MIC as determined with the Vitek 2 system ([2]; isolate of the droplet microfluidic experiments): 1 µg/mL
- clinical (reference) MIC as determined with Vitek 2 ([2]; isolate of the magnetic particle cluster experiments (FIGS. 47a-b)): 2 µg/mL
- change in rotational period (bacterial growth) ([3]; 0.5 μg/mL gentamicin): increase in rotational period
- change in rotational period (bacterial growth) ([3]; 2 μg/mL gentamicin): No substantial change in the rotational period
- change in rotational period (bacterial growth) ([3]; 4 μg/mL gentamicin): No substantial change in the rotational period
- difference in rotational period between bacteria treated above and below the MIC ([3]; after 15 minutes): 52%
- difference in rotational period between bacteria treated above and below the MIC ([3]; within 25 minutes): 100%
- minimum inhibitory concentration (MIC) from AMBR growth curves [4]: 2 µg/mL

Compound: [H]/N=C(/N)N[C@H]1[C@H](O)[C@@H](O)[C@H](O[C@@H]2O[C@@H](C)[C@](O)(C=O)[C@H]2O[C@@H]2O[C@@H](CO)[C@H](O)[C@@H](O)[C@@H]2NC)[C@@H](N/C(N)=N\[H])[C@@H]1O [streptomycin]
- MIC ([1]; Escherichia coli, read-out: MIC measured with AMBR clusters): 8 µg/mL (≈ 13.8 µM)
- MIC ([2]; Escherichia coli, isolate of the magnetic particle cluster experiments (FIGS. 47a-b), read-out: clinical (reference) MIC as determined with Vitek 2): 16 µg/mL (≈ 27.5 µM)

Compound: CC1(C)S[C@@H]2[C@H](NC(=O)[C@H](N)c3ccccc3)C(=O)N2[C@H]1C(=O)O [ampicillin]
- effect on growth of E. coli on clusters (rotational period) [5]: acts as a growth accelerating agent
